Test results published in ChEMBL document CHEMBL2331202, “Synthesis, Optimization, and Evaluation of Novel Small Molecules as Antagonists of WDR5-MLL Interaction” (ACS Med Chem Lett, 2013).

Each compound was assayed against T1, WD repeat-containing protein 5 (Homo sapiens, UniProt P61964) (assay: Antagonist activity at WDR5 (unknown origin)).
Compound `O=C(O)c1ccc2ccccc2c1-c1c(C(=O)O)ccc2ccccc12` has an IC50 of 6 µM.

The compounds below were run against T1, WD repeat-containing protein 5.
Work on `CN1CCN(c2ccc([N+](=O)[O-])cc2NC(=O)c2ccccc2)CC1` yielded a Kd of 5.8 µM.
In the case of `COc1cccc(C(=O)Nc2cc([N+](=O)[O-])ccc2N2CCN(C)CC2)c1`, the Kd is reported as 1.4 µM.
Compound `CN1CCN(c2ccc([N+](=O)[O-])cc2NC(=O)c2ccco2)CC1` has a Kd of over 10 µM.
Work on `CN1CCN(c2ccc(C(=O)O)cc2NC(=O)c2ccccc2Cl)CC1` yielded a Kd of over 10 µM.
`CN1CCN(c2ccc([N+](=O)[O-])cc2NC(=O)C2CCCCC2)CC1` showed a Kd of over 10 µM.
`CN1CCN(c2ccc([N+](=O)[O-])cc2NC(=O)c2cccc3ccccc23)CC1` gave a Kd of 0.71 µM.
In the case of `CN1CCN(c2ccc([N+](=O)[O-])cc2NC(=O)c2cccc3ncccc23)CC1`, the Kd is reported as 1.5 µM.
Work on `CN1CCN(c2ccc([N+](=O)[O-])cc2NC(=O)Cc2ccccc2)CC1` yielded a Kd of over 10 µM.
`CN1CCN(c2ccc([N+](=O)[O-])cc2NC(=O)c2cccnc2)CC1` showed a Kd of over 10 µM.
`COC(=O)c1ccc(N2CCN(C)CC2)c(NC(=O)c2ccccc2Cl)c1` gave a Kd of 6.6 µM.
`CN1CCN(c2ccc(C(F)(F)F)cc2NC(=O)c2ccccc2Cl)CC1` gave a Kd of over 10 µM.
In the case of `CN1CCN(c2ccc(Br)cc2NC(=O)c2ccccc2Cl)CC1`, the Kd is reported as over 10 µM.
For `CN1CCN(c2ccc(N)cc2NC(=O)c2ccccc2Cl)CC1`, the Kd was over 10 µM.
`CN1CCN(c2ccc(C3CC3)cc2NC(=O)c2ccccc2Cl)CC1` gave a Kd of over 10 µM.
In the case of `CN1CCN(c2ccc(-c3ccco3)cc2NC(=O)c2ccccc2Cl)CC1`, the Kd is reported as 3.5 µM.
Work on `CN1CCN(c2ccc(-c3ccncc3)cc2NC(=O)c2ccccc2Cl)CC1` yielded a Kd of 2.2 µM.
For `CN1CCN(c2ccc([N+](=O)[O-])cc2NC(=O)c2ccc(F)cc2)CC1`, the Kd was 3.1 µM.
Compound `CN1CCN(c2ccc([N+](=O)[O-])cc2NC(=O)c2ccc(F)cc2Cl)CC1` has a Kd of 0.63 µM.
`Cc1cc(C(=O)Nc2cc([N+](=O)[O-])ccc2N2CCN(C)CC2)ccc1F` gave a Kd of 0.59 µM.
For `COc1cc(C(=O)Nc2cc([N+](=O)[O-])ccc2N2CCN(C)CC2)ccc1F`, the Kd was 0.68 µM.
Compound `O=C(Nc1cc([N+](=O)[O-])ccc1F)c1ccccc1Cl` has a Kd of over 20 µM.
`CC1CN(c2ccc([N+](=O)[O-])cc2NC(=O)c2ccccc2Cl)CCN1C` (stereo not drawn) showed a Kd of 4.7 µM.
Compound `CN1CCCN(c2ccc([N+](=O)[O-])cc2NC(=O)c2ccccc2Cl)CC1` has a Kd of 7 µM.
Work on `O=C(Nc1cc([N+](=O)[O-])ccc1N1CCOCC1)c1ccccc1Cl` yielded a Kd of over 20 µM.
`O=C(Nc1cc([N+](=O)[O-])ccc1N1CCCCC1)c1ccccc1Cl` showed a Kd of over 20 µM.
In the case of `CCN1CCN(c2ccc([N+](=O)[O-])cc2NC(=O)c2ccccc2Cl)CC1`, the Kd is reported as over 20 µM.
Compound `CN(C)C1CCN(c2ccc([N+](=O)[O-])cc2NC(=O)c2ccccc2Cl)C1` (stereo not drawn) has a Kd of 15.8 µM.
`CN(C)C1CCN(c2ccc([N+](=O)[O-])cc2NC(=O)c2ccccc2Cl)CC1` gave a Kd of over 20 µM.
`O=C(Nc1cc([N+](=O)[O-])ccc1N1CCNCC1)c1ccccc1Cl` was tested, and the Kd was over 20 µM.
Compound `NC1CCN(c2ccc([N+](=O)[O-])cc2NC(=O)c2ccccc2Cl)C1` (stereo not drawn) has a Kd of over 20 µM.
For `NC1CCN(c2ccc([N+](=O)[O-])cc2NC(=O)c2ccccc2Cl)CC1`, the Kd was over 20 µM.
With `CN(C)CCN(C)c1ccc([N+](=O)[O-])cc1NC(=O)c1ccccc1Cl` the Kd was over 20 µM.
`CC(=O)Nc1cc([N+](=O)[O-])ccc1N1CCN(C)CC1` was tested, and the Kd was over 10 µM.
With `CN1CCN(c2ccc([N+](=O)[O-])cc2NC(=O)c2cccc(Cl)c2)CC1` the Kd was 1.8 µM.
Compound `Cc1cccc(C(=O)Nc2cc([N+](=O)[O-])ccc2N2CCN(C)CC2)c1` has a Kd of 1.1 µM.
Compound `Cc1cccc(C(=O)Nc2cc([N+](=O)[O-])ccc2N2CCN(C)CC2)c1Cl` has a Kd of 1.1 µM.
Work on `CN1CCN(c2ccc([N+](=O)[O-])cc2NC(=O)c2cccc(O)c2)CC1` yielded a Kd of over 10 µM.
